The values that follow come from US20090137396A1, “Piperazine Compounds with a Herbicidal Action” (BASF SE, priority 2006, published 2009).

The structures appear in SMILES notation.

One data set relates to test plants. Kind of data set: greenhouse experiment, post-emergence treatment, species not stated. In kind it is in vivo. The note with it: post-emergence method; scale from 0 to 100. The text has this: (§1) The seeds of the test plants were sown separately for each species. For the post-emergence treatment, the test plants were first grown to a height of 3 to 15 cm, depending on the plant habit, and only then treated with the active ingredients which had been suspended or emulsified in water. For this purpose, the test plants were either sown directly and grown in the same containers, or they were first grown separately as seedlings and transplanted into the test containers a few days prior to treatment. Depending on the species, the plants were kept at 10-25° C. or 20-35° C. The test period extended over 2 to 4 weeks. During this time, the plants were tended, and their response to the individual treatments was evaluated. Evaluation was carried out using a scale from 0 to 100. 100 means no emergence of the plants, or complete destruction of at least the aerial moieties, and 0 means no damage, or normal course of growth. Good herbicidal activity is given for values of at least 70 and very good herbicidal activity is given for values of at least 85. The plants used in the greenhouse experiments belonged to the following species: [table]
In the case of `CN1C(=O)C(Cc2ccccc2)N(C)C(=O)C1=Cc1cc2c(cc1[N+](=O)[O-])OCO2` (single isomer, unassigned) [Example 16], the herbicidal activity result is “good to very good”.
Same read-out and setting: the entry for `C=Cc1ccccc1C=C1C(=O)N(C)C(Cc2ccccc2)C(=O)N1C` (single isomer, unassigned) [Example 129] is “good to very good”; for `CN1C(=O)C(Cc2ccccc2)N(C)C(=O)C1=Cc1ccccc1-c1cccs1` (stereo not shown) [Example 49] it is “good to very good”; for `CN1C(=O)C(Cc2ccccc2)N(C)C(=O)C1=C(Br)c1ccccc1C#N` (stereo not shown) [Example 160] it is “good to very good”.
On the same count and under the same terms, the entry for `Cc1coc(-c2ccccc2C=C2C(=O)N(C)C(Cc3ccccc3)C(=O)N2C)n1` (single isomer, unassigned) [Example 52] is “good to very good”; for `CN1C(=O)C(Cc2ccccc2)N(C)C(=O)C1=Cc1ccccc1-c1ccco1` (single isomer, unassigned) [Example 47] it is “good to very good”; for `CCN1C(=O)C(Cc2ccccc2)N(CC)C(=O)C1=Cc1ccccc1Br` (stereo not shown) [Example 170] it is “good to very good”.
Still for that read-out and setting: the entry for `CN1C(=O)C(Cc2ccccc2)N(C)C(=O)C1=Cc1ccccc1-c1cccnc1` (stereo not shown) [Example 51] is “good to very good”; for `CN1C(=O)[C@H](Cc2ccccc2)N(C)C(=O)C1=Cc1ccccc1[N+](=O)[O-]` (stereo in doubt) [Example 1, 3-Benzyl-1,4-dimethyl-6-(2-nitrobenzylidene)piperazine-2,5-dione] it is “good to very good”.
For `Cc1cccc([N+](=O)[O-])c1C=C1C(=O)N(C)C(Cc2ccccc2)C(=O)N1C` (single isomer, unassigned) [Example 13], the herbicidal activity entry is “good to very good”.
Same read-out and setting: the entry for `CN1C(=O)C(Cc2ccccc2)N(C)C(=O)C1=Cc1ccccc1-c1ccco1` (single isomer, unassigned) [Example 48] is “good to very good”; for `CN1C(=O)C(Cc2ccccc2)N(C)C(=O)C1=Cc1ccccc1-c1nccs1` (single isomer, unassigned) [Example 44] it is “good to very good”.

Another data set concerns Lulium perenne (LOLMU). Kind of data set: greenhouse experiment, post-emergence treatment, LOLMU. The data set is classed as in vivo. The note with it: post-emergence method, application rate 1 kg/ha; scale from 0 to 100.
Text: as §1
Consider `CN1C(=O)[C@H](Cc2ccccc2)N(C)C(=O)C1=Cc1ccccc1[N+](=O)[O-]` (stereo in doubt) [Example 1, 3-Benzyl-1,4-dimethyl-6-(2-nitrobenzylidene)piperazine-2,5-dione], for which the “herbicidal activity against LOLMU” value was “very good (very good herbicidal activity is given for values of at least 85)”.

A further data set concerns test plants. Kind of data set: greenhouse experiment, pre-emergence treatment, species not stated. In kind it is in vivo. Conditions: pre-emergence method; scale from 0 to 100. An excerpt: (§2) The seeds of the test plants were sown separately for each species. For the pre-emergence treatment, the active ingredients, which had been suspended or emulsified in water, were applied directly after sowing by means of finely distributing nozzles. The containers were irrigated gently to promote germination and growth and subsequently covered with transparent plastic hoods until the plants had rooted. This cover causes uniform germination of the test plants, unless this has been impaired by the active ingredients. Depending on the species, the plants were kept at 10-25° C. or 20-35° C. The test period extended over 2 to 4 weeks. During this time, the plants were tended, and their response to the individual treatments was evaluated. Evaluation was carried out using a scale from 0 to 100. 100 means no emergence of the plants, or complete destruction of at least the aerial moieties, and 0 means no damage, or normal course of growth. Good herbicidal activity is given for values of at least 70 and very good herbicidal activity is given for values of at least 85. The plants used in the greenhouse experiments belonged to the following species: [table]
With `CN1C(=O)C(Cc2ccccc2)N(C)C(=O)C1=Cc1ccccc1-c1ncco1` (single isomer, unassigned) [Example 45], the herbicidal activity entry is recorded as “good to very good”.
Still for that read-out and setting: the entry for `CN1C(=O)C(Cc2ccccc2)N(C)C(=O)C1=Cc1c(F)cccc1I` (stereo not shown) [Example 38] is “good to very good”.
For `CN1C(=O)C(Cc2ccccc2)N(C)C(=O)C1=Cc1cccnc1Br` (stereo not shown) [Example 204], the herbicidal activity entry was “good to very good”.
As to `COC(=O)c1ccccc1C=C1C(=O)N(C)C(Cc2ccccc2)C(=O)N1C` (stereo not shown) [Example 73], the herbicidal activity result was “good to very good”.
Same read-out and setting: the entry for `Cc1cc(-c2ccccc2C=C2C(=O)N(C)C(Cc3ccccc3)C(=O)N2C)on1` (single isomer, unassigned) [Example 147] is “good to very good”; for `CC(=O)N1C(=O)C(=Cc2ccccc2C#N)N(C)C(=O)C1Cc1ccccc1` (stereo not shown) [Example 140] it is “good to very good”.
Still for that read-out and setting: the entry for `CN1C(=O)C(Cc2ccccc2)N(C)C(=O)C1=Cc1ccccc1-c1ncccn1` (single isomer, unassigned) [Example 100] is “good to very good”.
Still for that read-out and setting: the entry for `CN1C(=O)C(Cc2ccccc2)N(C)C(=O)C1=Cc1c(Br)ccc(F)c1F` (stereo not shown) [Example 119, 3-benzyl-1,4-dimethyl-6-(2-bromo-5,6-difluorobenzylidene)piperazine-2,5-dione] is “good to very good”.
For the compound `CN1C(=O)C(Cc2ccccc2)N(C(=O)c2ccccc2)C(=O)C1=Cc1ccccc1C#N` (stereo not shown) [Example 137], the herbicidal activity result is on record as “good to very good”.
The same measure, in the same setting: the entry for `CN1C(=O)C(Cc2ccccc2)N(C)C(=O)C1=Cc1ccccc1-c1cnccn1` (single isomer, unassigned) [Example 109] is “good to very good”; for `CN1C(=O)C(Cc2ccccc2)N(C)C(=O)C1=Cc1cc(F)ccc1Br` (stereo not shown) [Example 62] it is “good to very good”; for `CN1C(=O)C(Cc2cccs2)N(C)C(=O)C1=Cc1ccccc1I` (stereo not shown) [Example 214] it is “good to very good”.
The same measure, in the same setting: the entry for `CN1C(=O)C(Cc2ccccc2)N(C)C(=O)C1=Cc1ccccc1-c1ncccn1` (single isomer, unassigned) [Example 101] is “good to very good”; for `CN1C(=O)C(Cc2ccccc2)N(C)C(=O)C1=Cc1ccsc1[N+](=O)[O-]` (stereo not shown) [Example 191] it is “good to very good”.
Still for that read-out and setting: the entry for `Cc1cc(-c2ccccc2C=C2C(=O)N(C)C(Cc3ccccc3)C(=O)N2C)on1` (single isomer, unassigned) [Example 148] is “good to very good”.
For `CN1C(=O)C(Cc2ccccc2)N(C)C(=O)C1=Cc1ccccc1C(F)(F)F` (stereo not shown) [Example 54], the herbicidal activity entry is given as “good to very good”.
The same measure, in the same setting: the entry for `CN1C(=O)C(Cc2ccccc2)N(C)C(=O)C1=Cc1c(Cl)cccc1I` (stereo not shown) [Example 40] is “good to very good”; for `CN1C(=O)C(Cc2ccccc2)N(C)C(=O)C1=Cc1ccccc1-c1cncnc1` (stereo not shown) [Example 124] it is “good to very good”.
Still for that read-out and setting: the entry for `CN1C(=O)C(Cc2ccccc2)N(C)C(=O)C1=Cc1ccccc1-c1cnccn1` (single isomer, unassigned) [Example 110] is “good to very good”; for `CN1C(=O)C(Cc2ccccc2)N(C)C(=O)C1=Cc1cnccc1I` (stereo not shown) [Example 206] it is “good to very good”; for `CN1C(=O)C(Cc2ccccc2)N(C)C(=O)C1=Cc1ncccc1[N+](=O)[O-]` (stereo not shown) [Example 198] it is “good to very good”.

For a further data set, the system named is Abutilon theophrasti (ABUTH). In words: greenhouse experiment, pre-emergence treatment, ABUTH. The data set is classed as in vivo. The note with it: pre-emergence method, application rate 3 kg/ha; scale from 0 to 100.
Text: as §2
On to `COC(=O)c1ccccc1C=C1C(=O)N(C)C(Cc2ccccc2)C(=O)N1C` (stereo not shown) [Example 73], for which the “herbicidal activity against ABUTH” value was “good (Good herbicidal activity is given for values of at least 70)”.

Another data set relates to Amaranthus retroflexus (AMARE). In words: greenhouse experiment, pre-emergence treatment, AMARE. The note with it: pre-emergence method, application rate 1 kg/ha; scale from 0 to 100. The data set is classed as in vivo.
Text: as §2
`CN1C(=O)C(Cc2ccccc2)N(C(=O)c2ccccc2)C(=O)C1=Cc1ccccc1C#N` (stereo not shown) [Example 137]: the “herbicidal activity against AMARE” value is “good (Good herbicidal activity is given for values of at least 70)”.

A further data set concerns Avena fatua (AVEFA). In words: greenhouse experiment, pre-emergence treatment, AVEFA. In kind it is in vivo. Conditions: pre-emergence method, application rate 1 kg/ha; scale from 0 to 100.
Text: as §2
Regarding `CN1C(=O)C(Cc2ccccc2)N(C)C(=O)C1=Cc1cnccc1I` (stereo not shown) [Example 206], the “herbicidal activity against AVEFA” value is “good (Good herbicidal activity is given for values of at least 70)”.

The subject of another data set is SETIT. In words: greenhouse experiment, pre-emergence treatment, SETIT. The data set is classed as in vivo. The note with it: pre-emergence method, application rate 3 kg/ha; scale from 0 to 100.
Text: as §2
For `CN1C(=O)C(Cc2cccs2)N(C)C(=O)C1=Cc1ccccc1I` (stereo not shown) [Example 214], the “herbicidal activity against SETIT” value is listed as “good (Good herbicidal activity is given for values of at least 70)”.

System in a further data set: not given
Assay: not given
Conditions: not given
`CN1C(=O)C(Cc2ccccc2)N(C)C(=O)C1=Cc1c[nH]c2cccc(Br)c12` (stereo not shown) [Example 199] showed a melting point of 236 °C.
The same measure, in the same setting: the figure for `CN1C(=O)C(Cc2ccccc2)N(C)C(=O)C1=Cc1c[nH]c2cccc([N+](=O)[O-])c12` (stereo not shown) [184] is 159 °C.
The same measure, in the same setting: the figure for `CN1C(=O)C(Cc2ccccc2)N(C)C(=O)C1=Cc1ccncc1[N+](=O)[O-]` (stereo not shown) [Example 196] is 180 °C.
On the same count and under the same terms, the figure for `CN1C(=O)C(Cc2ccccc2)N(C)C(=O)C1=Cc1c(C#N)ccc(F)c1F` (stereo not shown) [Example 115, 3-Benzyl-1,4-dimethyl-6-(2-cyano-5,6-difluorobenzylidene)piperazine-2,5-dione] is 175 °C; for `CN1C(=O)C(Cc2ccccc2)N(C)C(=O)C1=Cc1ccncc1[N+](=O)[O-]` (stereo not shown) [Example 197] it is 175 °C.
`CN1C(=O)C(Cc2ccccc2)N(C)C(=O)C1=Cc1c[nH]c2cccc([N+](=O)[O-])c12` (stereo not shown) [185] returned a melting point of 238 °C.
The same measure, in the same setting: the figure for `CN1C(=O)C(Cc2ccccc2)N(C)C(=O)C1=Cc1cccnc1C#N` (stereo not shown) [Example 205] is 218 °C.
Same read-out and setting: the figure for `CN1C(=O)C(Cc2ccccc2)N(C)C(=O)C1=Cc1ncccc1[N+](=O)[O-]` (stereo not shown) [Example 198] is 165 °C.
